Source: publication PMC9205682 (Biochimica et biophysica acta. Biomembranes, 2021)

Target: Mycobacterial membrane protein large 3 (Mmpl3) (Mycolicibacterium smegmatis, UniProt A0QP27)
Experiment: MicroScale Thermophoresis
Assay type: binding

Chain of Mycobacterial membrane protein large 3 (Mmpl3) (A0QP27 whole entry): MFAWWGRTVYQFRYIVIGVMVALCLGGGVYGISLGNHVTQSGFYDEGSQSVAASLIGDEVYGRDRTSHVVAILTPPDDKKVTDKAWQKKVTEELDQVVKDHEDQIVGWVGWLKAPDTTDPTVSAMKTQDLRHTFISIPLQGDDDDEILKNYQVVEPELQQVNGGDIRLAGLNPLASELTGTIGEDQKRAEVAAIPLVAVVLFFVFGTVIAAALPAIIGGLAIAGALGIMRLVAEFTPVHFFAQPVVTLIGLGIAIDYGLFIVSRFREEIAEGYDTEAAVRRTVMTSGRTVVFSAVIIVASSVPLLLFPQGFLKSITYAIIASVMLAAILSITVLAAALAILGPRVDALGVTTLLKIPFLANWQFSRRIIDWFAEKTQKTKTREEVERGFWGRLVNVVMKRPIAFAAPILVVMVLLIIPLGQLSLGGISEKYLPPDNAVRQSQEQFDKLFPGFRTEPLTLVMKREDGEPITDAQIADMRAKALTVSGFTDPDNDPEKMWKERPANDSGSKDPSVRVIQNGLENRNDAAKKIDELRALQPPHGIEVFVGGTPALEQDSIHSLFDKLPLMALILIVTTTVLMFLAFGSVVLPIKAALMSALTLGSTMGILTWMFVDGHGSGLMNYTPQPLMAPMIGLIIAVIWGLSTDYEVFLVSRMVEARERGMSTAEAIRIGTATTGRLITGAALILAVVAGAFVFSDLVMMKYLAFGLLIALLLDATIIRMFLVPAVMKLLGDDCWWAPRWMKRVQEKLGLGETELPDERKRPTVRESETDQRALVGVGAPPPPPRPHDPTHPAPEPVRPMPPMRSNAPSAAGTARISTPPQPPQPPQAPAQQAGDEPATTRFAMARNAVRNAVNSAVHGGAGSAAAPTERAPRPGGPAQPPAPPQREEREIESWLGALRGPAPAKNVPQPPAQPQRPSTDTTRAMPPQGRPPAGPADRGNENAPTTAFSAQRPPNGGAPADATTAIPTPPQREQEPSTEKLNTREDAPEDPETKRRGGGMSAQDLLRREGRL

Compound: CC(C)=CCC/C(C)=C/CNCCNC1C2CC3CC(C2)CC1C3 (stereo not shown) [SQ109]
- Kd: 1.56 µM
